Target: Isoform 3 of Cannabinoid receptor 1 (Human, UniProt P21554)
Test: Biochemical Assay
Method: hCB1/hCB1 b Gai Cyclic AMP (cAMP) Assays: Cells were seeded in a 384-well plate at an appropriate density from frozen cells. The cAMP assays were performed according to the manufacturer's protocol using MULTISCREEN™ TR-FRET cAMP 1.0 No Wash Assay Kit. Cells (hCB1 or hCB1 b) were pre-incubated with customer compounds for 30 minutes at rt followed by addition of EC80 CP55940 concentration and Forskolin. Cells were then incubated for 20 minutes at 37C. The reaction was terminated by sequentially adding sequentially adding MULTISCREEN™ Eu-labeled cAMP and MULTISCREEN™ 650-labeled anti-cAMP antibody in lysis buffer. The plate was then incubated at rt for 30 minutes before reading fluorescent emissions at 620 nm and 665 with excitation at 314 nm on FlexStation III (Molecular Devices).

Isoform 3 of Cannabinoid receptor 1, sequence (P21554 as listed by the source): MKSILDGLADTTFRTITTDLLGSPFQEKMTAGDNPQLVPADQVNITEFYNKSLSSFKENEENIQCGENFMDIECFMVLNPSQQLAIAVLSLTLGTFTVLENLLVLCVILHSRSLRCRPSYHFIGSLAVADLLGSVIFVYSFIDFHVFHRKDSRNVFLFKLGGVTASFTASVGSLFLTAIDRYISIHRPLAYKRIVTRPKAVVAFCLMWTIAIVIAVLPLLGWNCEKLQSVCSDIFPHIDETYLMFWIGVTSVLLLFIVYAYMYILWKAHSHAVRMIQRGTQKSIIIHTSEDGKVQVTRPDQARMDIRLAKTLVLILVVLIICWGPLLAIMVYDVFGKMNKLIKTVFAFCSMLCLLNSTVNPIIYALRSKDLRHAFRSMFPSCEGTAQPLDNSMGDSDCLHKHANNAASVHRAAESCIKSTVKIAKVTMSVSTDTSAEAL

- IC50: < 100 nM
Structure (SMILES): C#Cc1cccc(S(=O)(=O)N=C(NCCS(N)(=O)=O)N2C[C@H](c3ccccc3)C(c3ccc(Cl)cc3)=N2)c1 [US20250248973, Compound 35]

From BindingDB's records for patent US20250248973 (Corbus Pharmaceuticals, 2025)
